ChEMBL document CHEMBL4417635, “2-hydroxyarylamide derivative or pharmaceutically acceptable salt thereof, preparation method thereof, and pharmaceutical composition for preventing or treating cancer containing same as active ingredient” (2013)

Key:
[1] = target: Transmembrane protease serine 4 (Homo sapiens) (UniProt Q9NRS4); assay: (§1) Inhibition of TMPRSS4 serine protease domain (Val 205 to Leu 437 residues) (unknown origin) expressed in Escherichia coli BL21 (DE3) at 100 uM using […]-Gln-Ala-Arg-7-amido-4-methylcoumarin hydrochloride substrate and measured for 5 mins at 5 mins intervals by fluorescence based assay relative to control
Chain of Transmembrane protease serine 4 (Homo sapiens) (Q9NRS4 whole entry, the tested form may be a part): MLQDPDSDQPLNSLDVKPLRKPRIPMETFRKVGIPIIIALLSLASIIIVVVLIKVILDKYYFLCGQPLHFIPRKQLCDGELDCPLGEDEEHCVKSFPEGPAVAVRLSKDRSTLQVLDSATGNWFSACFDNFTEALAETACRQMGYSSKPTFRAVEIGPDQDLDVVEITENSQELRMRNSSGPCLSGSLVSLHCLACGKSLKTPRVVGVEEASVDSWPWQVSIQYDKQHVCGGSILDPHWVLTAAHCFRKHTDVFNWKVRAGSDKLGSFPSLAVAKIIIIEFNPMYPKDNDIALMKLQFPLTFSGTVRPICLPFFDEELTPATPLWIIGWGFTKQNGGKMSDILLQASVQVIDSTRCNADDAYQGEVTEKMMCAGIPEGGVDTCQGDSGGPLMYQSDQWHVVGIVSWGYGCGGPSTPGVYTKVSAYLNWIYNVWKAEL

[2] = target: Transmembrane protease serine 4 (Homo sapiens) (UniProt Q9NRS4); assay: as §1, with “30” for “100”
[3] = target: Transmembrane protease serine 4 (Homo sapiens) (UniProt Q9NRS4); assay: as §1, with “10” for “100”
[4] = target: Transmembrane protease serine 4 (Homo sapiens) (UniProt Q9NRS4); assay: Inhibition of TMPRSS4 serine protease domain (Val 205 to Leu 437 residues) (unknown origin) expressed in Escherichia coli BL21 (DE3) using […]-Gln-Ala-Arg-7-amido-4-methylcoumarin hydrochloride substrate and measured for 5 mins at 5 mins intervals by fluorescence based assay relative to control
[5] = target: Transmembrane protease serine 4 (Homo sapiens) (UniProt Q9NRS4); assay: Inhibition of TMPRSS4 (unknown origin) expressed in human SW480 cells assessed as reduction in cell migration at 0.8 uM incubated for 48 hrs by crystal violet staining based assay relative to control
[6] = target: Transmembrane protease serine 4 (Homo sapiens) (UniProt Q9NRS4); assay: Inhibition of TMPRSS4 (unknown origin) expressed in human SW480 cells assessed as reduction in cell migration at 25 uM incubated for 48 hrs by crystal violet staining based assay relative to control
[7] = target: Transmembrane protease serine 4 (Homo sapiens) (UniProt Q9NRS4); assay: Inhibition of TMPRSS4 (unknown origin) expressed in human SW480 cells assessed as reduction in cell migration at 2 uM incubated for 48 hrs by crystal violet staining based assay relative to control
[8] = target: Transmembrane protease serine 4 (Homo sapiens) (UniProt Q9NRS4); assay: Inhibition of TMPRSS4 (unknown origin) expressed in human SW480 cells assessed as reduction in cell migration at 5 uM incubated for 48 hrs by crystal violet staining based assay relative to control

Row | Structure (SMILES) | inhibition [1] [%] | inhibition [2] [%] | inhibition [3] [%] | inhibition [4] | inhibition [5] [%] | inhibition [6] [%] | inhibition [7] [%] | inhibition [8] [%]
1 | O=C(Nc1cc(C(F)(F)F)cc(C(F)(F)F)c1)c1cc(Cl)ccc1O | 100 | 96 | 64 | Dose-dependent effect | 76 |  |  | 
2 | O=C(Nc1cnc2ccccc2c1)c1cc(Cl)ccc1O | 75 | 8 |  | Dose-dependent effect |  | 51 |  | 
3 | COc1cc(NC(=O)c2cc(Cl)ccc2O)cc(C(F)(F)F)c1 | 99 | 88 | 67 | Dose-dependent effect | 49 |  |  | 
4 | O=C(Nc1nc(-c2ccccc2)cs1)c1cc(Cl)ccc1O | 98 | 91 |  | Dose-dependent effect |  |  | 75 | 
5 | N#Cc1ccc(NC(=O)c2cc(Cl)ccc2O)nc1 |  | 63 | 26 | Dose-dependent effect |  |  |  | 44
6 | O=C(Nc1ccc(Cl)c(C(F)(F)F)c1)c1cc(Cl)ccc1O | 99 | 95 | 71 | Dose-dependent effect | 68 |  |  | 
7 | N#Cc1ccc(NC(=O)c2cc(Cl)ccc2O)cc1C(F)(F)F | 100 | 88 |  | Dose-dependent effect |  |  | 81 | 
8 | O=C(Nc1nnc(C(F)(F)F)s1)c1cc(Cl)ccc1O | 100 | 75 |  | Dose-dependent effect |  |  |  | 29
9 | N#Cc1ccc(NC(=O)c2cc(Cl)ccc2O)c(Cl)c1 | 100 | 92 |  | Dose-dependent effect |  |  | 54 | 
